Source: ChEMBL document CHEMBL1201862, “PubChem BioAssay data set” (2004)
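Exposure lasted 48 hours, with cells grown in 96-well plates and compounds tested at five concentrations. GI50 marks 50% less growth.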 The source made the active and inactive calls. Rule as the data show it: active = GI50 up to about 1.1 µM and inactive = higher.

Legend:
Test in all cases: growth of human tumour cells (NCI), 48 h
[1] = test system: 786-0
[2] = test system: DU-145
[3] = test system: HL-60
[4] = test system: HT-29
[5] = test system: KM12
[6] = test system: MDA-N
[7] = test system: NCI-H226
[8] = test system: NCI-H460
[9] = test system: OVCAR-8
[10] = test system: SF-295
[11] = test system: SK-MEL-28
[12] = test system: SN12C
[13] = test system: SR
[14] = test system: SW-620
[15] = test system: A498
[16] = test system: CCRF-CEM
[17] = test system: SK-MEL-5
[18] = test system: SK-OV-3
[19] = test system: HCC 2998

Measured: GI50

Cc1ccc(N(C)S(=O)(=O)c2ccccc2[N+](=O)[O-])cc1
inactive: [1] > 100 µM | [2] 98.4 µM | [3] > 100 µM | [4] 34 µM | [5] 29.4 µM | [6] 34.5 µM | [7] 27.3 µM | [8] 32.5 µM | [9] 48.6 µM | [10] 52.1 µM | [11] 44.9 µM | [12] 83 µM | [13] 47.4 µM | [14] 58.3 µM

O=C(O)C(=Cc1ccnc2ccccc12)C(=O)O
inactive: [1] > 100 µM | [15] > 100 µM | [16] > 100 µM | [2] > 100 µM | [3] > 100 µM | [4] > 100 µM | [5] > 100 µM | [6] > 100 µM | [7] > 100 µM | [8] > 100 µM | [9] > 100 µM | [10] > 100 µM | [11] > 100 µM | [17] > 100 µM | [18] > 100 µM | [12] > 100 µM | [13] > 100 µM | [14] > 100 µM

Cc1ccc(S(=O)(=O)N[C@@H](Cc2ccccc2)C(=O)CCl)cc1 [TPCK]
inactive: [1] 13.9 µM | [15] 17.8 µM | [16] 3.7 µM | [2] 17.7 µM | [19] 13.9 µM | [3] 4.66 µM | [4] 14.9 µM | [6] 14.3 µM | [7] 15.2 µM | [8] 15.5 µM | [9] 13.7 µM | [10] 18.9 µM | [11] 18.6 µM | [17] 12.2 µM | [18] 24.2 µM | [12] 12.7 µM | [14] 11.5 µM

COc1ccccc1/C=N/Nc1nnc2c3ccccc3c3ncccc3c2n1
inactive: [1] 28.1 µM | [16] 17.6 µM | [2] > 100 µM | [19] 71.9 µM | [3] > 100 µM | [4] 57.4 µM | [5] > 100 µM | [6] > 100 µM | [8] 45.1 µM | [9] 30 µM | [10] 6.14 µM | [11] > 100 µM | [17] 89.5 µM | [18] 32.8 µM | [12] 87.5 µM | [13] 39.9 µM | [14] > 100 µM

O=C1c2c(Br)sc(Br)c2[C@@H](Cl)[C@H]1Cl
inactive: [1] 24.5 µM | [15] > 100 µM | [16] 3.18 µM | [2] 18.7 µM | [3] 3.27 µM | [4] 28.4 µM | [5] 17.2 µM | [6] 11 µM | [7] 16.4 µM | [8] 19.4 µM | [9] 15.1 µM | [10] 20.5 µM | [11] 23.3 µM | [17] 16.1 µM | [18] 19.4 µM | [12] 8.87 µM | [13] 2.81 µM | [14] 5.08 µM

Nc1c(S(=O)(=O)O)cc(S(=O)(=O)O)c2ccc(/N=N/c3ccccc3)c(O)c12
inactive: [1] > 100 µM | [15] > 100 µM | [16] > 100 µM | [2] > 100 µM | [3] > 100 µM | [4] > 100 µM | [5] > 100 µM | [6] > 100 µM | [7] > 100 µM | [8] > 100 µM | [9] > 100 µM | [10] > 100 µM | [11] > 100 µM | [17] > 100 µM | [18] > 100 µM | [12] > 100 µM | [13] > 100 µM | [14] > 100 µM

O=[N+]([O-])/C(C(Cl)=C(Cl)Cl)=C(\Nc1cccc2ccccc12)n1nnc2ccccc21
inactive: [1] > 100 µM | [15] 33.5 µM | [16] 28.9 µM | [2] > 100 µM | [19] > 100 µM | [4] 63.5 µM | [5] 30.7 µM | [6] > 100 µM | [7] 71.3 µM | [8] 63.4 µM | [9] 73.6 µM | [10] 32.1 µM | [11] > 100 µM | [18] 68.7 µM | [12] > 100 µM | [14] 58.5 µM

CCOC(=O)c1ccc(N2C(=S)N(C(=O)c3ccccc3)C(=N/c3ccccc3)/C2=N\c2ccccc2)cc1
inactive: [1] 42.2 µM | [2] 92.9 µM | [19] > 100 µM | [4] > 100 µM | [5] > 100 µM | [6] 26.5 µM | [7] 22.9 µM | [8] > 100 µM | [9] 24.7 µM | [10] 65.9 µM | [11] > 100 µM | [17] 50 µM | [18] 32 µM | [12] > 100 µM | [13] > 100 µM | [14] > 100 µM

CC(NNC(=O)c1ccncc1)c1ccc(F)cc1 (stereo not given)
inactive: [1] > 100 µM | [15] > 100 µM | [16] > 100 µM | [2] > 100 µM | [19] > 100 µM | [3] 80 µM | [4] > 100 µM | [5] > 100 µM | [6] > 100 µM | [7] > 100 µM | [8] > 100 µM | [9] > 100 µM | [10] > 100 µM | [11] > 100 µM | [17] > 100 µM | [18] > 100 µM | [12] > 100 µM | [14] > 100 µM

CC(O)C1OC(O)C2OC(C)(C)OC12 (stereo not given)
inactive: [1] > 100 µM | [15] > 100 µM | [16] > 100 µM | [2] > 100 µM | [3] > 100 µM | [4] > 100 µM | [5] > 100 µM | [6] > 100 µM | [7] > 100 µM | [8] > 100 µM | [9] > 100 µM | [10] > 100 µM | [11] > 100 µM | [17] > 100 µM | [18] > 100 µM | [12] > 100 µM | [13] > 100 µM | [14] > 100 µM

n1onc2c1NC1Nc3nonc3NC1N2 (stereo not given)
inactive: [1] > 100 µM | [15] > 100 µM | [16] > 100 µM | [2] > 100 µM | [19] > 100 µM | [3] > 100 µM | [4] > 100 µM | [5] > 100 µM | [6] > 100 µM | [7] > 100 µM | [8] > 100 µM | [9] > 100 µM | [10] > 100 µM | [11] > 100 µM | [17] > 100 µM | [18] > 100 µM | [12] > 100 µM | [14] > 100 µM

O=C(NC1CCN(Cc2ccccc2)CC1)c1ccc(I)cc1
inactive: [1] 97.5 µM | [15] > 100 µM | [16] 76.7 µM | [2] 91.6 µM | [3] > 100 µM | [4] 19.8 µM | [5] > 100 µM | [6] 54.6 µM | [7] 33.4 µM | [8] > 100 µM | [9] > 100 µM | [10] 29.5 µM | [11] 63.2 µM | [17] 17.7 µM | [18] 44.1 µM | [12] > 100 µM | [13] > 100 µM | [14] > 100 µM

Oc1ccccc1CNCc1ccccc1O
inactive: [1] > 100 µM | [15] > 100 µM | [16] 59.2 µM | [2] > 100 µM | [19] 19.2 µM | [3] > 100 µM | [4] > 100 µM | [5] > 100 µM | [6] 39.8 µM | [7] > 100 µM | [8] 78.5 µM | [9] > 100 µM | [10] > 100 µM | [11] > 100 µM | [17] 46.9 µM | [18] > 100 µM | [12] > 100 µM | [14] > 100 µM

O=c1c2cc(S(=O)(=O)Nc3c(Cl)cccc3Cl)ccc2ncn1NS(=O)(=O)c1ccc2ccccc2c1
inactive: [1] > 62.5 µM | [16] 17.1 µM | [2] 42.9 µM | [19] 24.4 µM | [3] 20.2 µM | [4] 16.4 µM | [5] 15.2 µM | [6] 41 µM | [7] 8.87 µM | [8] 42.2 µM | [9] > 62.5 µM | [10] 23 µM | [11] > 62.5 µM | [18] > 62.5 µM | [12] > 62.5 µM | [13] 40.9 µM | [14] > 62.5 µM

CC[C@@]1(C[C@H]2C[C@@]3(C(=O)OC)c4[nH]c5ccccc5c4CCN3C2=O)COC2(CCCCC2)O1
inactive: [1] 39.9 µM | [2] 41.8 µM | [19] 21.2 µM | [3] 18.9 µM | [4] 27.4 µM | [5] 19.9 µM | [6] 43.2 µM | [8] 24.3 µM | [9] 43.3 µM | [10] 33.4 µM | [17] 13.5 µM | [18] 69.5 µM | [12] 45.7 µM | [13] 31.3 µM

CCCCC1Cc2cc(OC)ccc2-c2nc3cc(OC)ccc3n21.CCCCC1Cc2cc(OC)ccc2-c2nc3ccc(OC)cc3n21 (stereo not given)
inactive: [1] 14.7 µM | [16] 13.8 µM | [2] 16.4 µM | [3] 13.8 µM | [4] 10.7 µM | [5] 18.7 µM | [6] 14 µM | [7] 14 µM | [8] 15.4 µM | [9] 15.6 µM | [17] 14.3 µM | [18] 13.5 µM | [12] 14.7 µM | [13] 11.6 µM | [14] 14.5 µM
